≈ marks a conversion by molar mass, not a printed value. Calls of active or inactive are those of the source. No cut-off for these calls is given here.
Columns and labels:
NCI-H460 = assay: cells; type: functional, cell-based; conditions: Homo sapiens, NCI-H460, 72 h
Description: Antiproliferative activity against human NCI-H460 cells assessed as inhibition of cell viability measured after 72 hrs by colorimetric MTS viability assay

Jurkat = assay: cells; type: functional, cell-based; conditions: Homo sapiens, 72 h
Description: Cytotoxicity against human Jurkat cells assessed as inhibition of cell viability measured after 72 hrs by real-time IncuCyte proliferation analysis

Staphylococcus aureus = assay: Antibacterial activity against Staphylococcus aureus ATCC65385 assessed as growth inhibition after 20 hrs by broth microdilution method; type: functional
Listeria innocua = assay: Antibacterial activity against Listeria innocua LMG11387 assessed as growth inhibition after 20 hrs by broth microdilution method; type: functional
HL-60 = assay: cells; type: functional, cell-based; conditions: Homo sapiens, HL-60, 72 h
Description: Antiproliferative activity against human HL-60 cells assessed as inhibition of cell viability measured after 72 hrs by real-time IncuCyte proliferation analysis

LN-229 = assay: Antiproliferative activity against human LN-229 cells assessed as inhibition of cell viability measured after 72 hrs by colorimetric MTS viability assay; type: functional, cell-based; conditions: LN-229, 72 h
Z-138 = assay: cells; type: functional, cell-based; conditions: Homo sapiens, Z-138, 72 h
Description: Antiproliferative activity against human Z138 cells assessed as inhibition of cell viability measured after 72 hrs by real-time IncuCyte proliferation analysis

[1] = tested on: Salmonella enterica subsp. enterica; assay: Antibacterial activity against Salmonella enterica subsp.enterica ATCC13076 assessed as growth inhibition after 20 hrs by broth microdilution method; type: functional
[2] = Antiproliferative activity against human DND41 cells assessed as inhibition of cell viability measured after 72 hrs by real-time IncuCyte proliferation analysis; type: functional, cell-based; conditions: DND41, 72 h
HCT-116 = assay: Antiproliferative activity against human HCT-116 cells assessed as inhibition of cell viability measured after 72 hrs by colorimetric MTS viability assay; type: functional, cell-based; conditions: HCT-116, 72 h
MV4-11 = assay: cells; type: functional, cell-based; conditions: Homo sapiens, MV4-11, 72 h
Description: Cytotoxicity against human MV4-11cells assessed as inhibition of cell viability measured after 72 hrs by real-time IncuCyte proliferation analysis

Escherichia coli = assay: Antibacterial activity against Escherichia coli ATCC47076 assessed as growth inhibition after 20 hrs by broth microdilution method; type: functional
Rec1 = assay: cells; type: functional, cell-based; conditions: Homo sapiens, Rec1, 72 h
Description: Cytotoxicity against human REC1 cells assessed as inhibition of cell viability measured after 72 hrs by real-time IncuCyte proliferation analysis

[3] = Antiproliferative activity against human HAP1 cells assessed as inhibition of cell viability measured after 72 hrs by colorimetric MTS viability assay; type: functional, cell-based; conditions: HAP1, 72 h
CAPAN-1 = assay: cells; type: functional, cell-based; conditions: Homo sapiens, CAPAN-1, 72 h
Description: Antiproliferative activity against human CAPAN-1 cells assessed as inhibition of cell viability measured after 72 hrs by colorimetric MTS viability assay

K562 = assay: cells; type: functional, cell-based; conditions: Homo sapiens, K562, 72 h
Description: Antiproliferative activity against human K562 cells assessed as inhibition of cell viability measured after 72 hrs by real-time IncuCyte proliferation analysis

IC50 (NCI-H460) | IC50 (Jurkat) | MIC50 (Staphylococcus aureus) | MIC50 (Listeria innocua) | IC50 (HL-60) | IC50 (Z-138) | MIC50 [1] | IC50 (HCT-116) | IC50 (MV4-11) | MIC50 (Escherichia coli) | IC50 (Rec1) | IC50 (CAPAN-1) | IC50 (K562) | Structure (SMILES) | IC50 (LN-229) | IC50 [2] | IC50 [3]
8.6 µM | 3.2 µM | 37 µg/mL (≈ 60.7 µM) | 153 µg/mL (≈ 252 µM) | 1.5 µM | 9.4 µM | inactive | 11.5 µM | 12.9 µM | inactive | 1.7 µM | 4.5 µM | 49.3 µM | C[C@H]1[C@H](C)CC[C@]2(C(=O)O)CC[C@]3(C)C(=CC[C@@H]4[C@@]5(C)Cc6nnn(Cc7ccc8[nH]ccc8c7)c6C(C)(C)[C@@H]5CC[C@]43C)[C@H]12 | 33.1 µM | 11.5 µM | 4.3 µM
8.8 µM | 3.8 µM | 132 µg/mL (≈ 212 µM) | 118 µg/mL (≈ 189 µM) | 5.5 µM | 12.2 µM | inactive | 10.8 µM | 9.9 µM | inactive | 2.5 µM | 4.6 µM | 65.9 µM | C[C@H]1[C@H](C)CC[C@]2(C(=O)O)CC[C@]3(C)C(=CC[C@@H]4[C@@]5(C)Cc6nnn(CCc7c[nH]c8ccccc78)c6C(C)(C)[C@@H]5CC[C@]43C)[C@H]12 | 35.1 µM | 9 µM | 6.3 µM
7.9 µM | 5.2 µM | 60.5 µg/mL (≈ 99.3 µM) | 74.4 µg/mL (≈ 122 µM) | 3.3 µM | 10.3 µM | inactive | 11 µM | 12.6 µM | inactive | 4.9 µM | 2.6 µM | 53.7 µM | C[C@H]1[C@H](C)CC[C@]2(C(=O)O)CC[C@]3(C)C(=CC[C@@H]4[C@@]5(C)Cc6nnn(Cc7ccc8cc[nH]c8c7)c6C(C)(C)[C@@H]5CC[C@]43C)[C@H]12 | 32.2 µM | 13.9 µM | 2.3 µM
7.6 µM | 4.1 µM | 274 µg/mL (≈ 439 µM) | 255 µg/mL (≈ 409 µM) | 1.5 µM | 11.6 µM | inactive | 11.1 µM | 15.8 µM | 387 µg/mL (≈ 622 µM) | 2.1 µM | 9.6 µM | 52.1 µM | CC1(C)CC[C@]2(C(=O)O)CC[C@]3(C)C(=CC[C@@H]4[C@@]5(C)Cc6nnn(CCc7c[nH]c8ccccc78)c6C(C)(C)[C@@H]5CC[C@]43C)[C@@H]2C1 | 55.1 µM | 9.9 µM | > 7.9 µM

Reference: ChEMBL document CHEMBL4828727, “Antibacterial and antitumoral properties of 1,2,3-triazolo fused triterpenes and their mechanism of inhibiting the proliferation of HL-60 cells” (Eur J Med Chem, 2021)
